Series [1] is described as follows: Tissue distribution of AP and APM in rats. The class given is in vivo. As to the method:
(§1) Control and ABX rats were orally administered a single dose of AP at 120 mg/kg. Control, ABX and germ-free C57BL/6J mice were orally administered a single dose of AP at 100 mg/kg. After 90 min of AP administration, all animals were euthanized, and blood and tissue samples were collected for subsequent analysis.
(§2) An ACQUITY^TM UPLC-MS/MS system equipped with an ACQUITY^TM UPLC BEH C18 Column (50 × 2.1 mm I.D., 1.7 μm, Waters, Milford, MA, USA) was utilized for the quantification of AP and APM as previously described.[47] Briefly, the detection samples (50 μL) were mixed with 50 μL of IS (50 ng/mL). AP and APM were extracted by 400 μL cold methanol. Supernatants were dried under nitrogen stream. Then, the residue was dissolved with 50% methanol in water, centrifuged for 30 min at 13,000 rpm, and 10 µL of the supernatant was subjected to UPLC-MS/MS analysis. The mobile phases consisted of eluent A (water) and eluent B (methanol) with a gradient elution as follows: 0–0.8 min, 10% B; 0.8–1.2 min, 10–90% B; 1.2–5.0 min, 90% B; 5.0–5.5 min, 90–10% B; 5.5–7.0 min, 10% B. The flow rate was 0.3 mL/min and the injection volume of all samples was 10 μL. The quantification of AP, APM and IS was performed by UPLC-MS/MS using an MRM method with the transitions of m/z 349.1→m/z 287.2 for AP, m/z 413.2→m/z 287.2 for APM, m/z 269→m/z 133 for IS.
(§3) AP was administered intravenously and orally to detect the production of the C-sulfonate metabolite APM. In tissue distribution experiment, rats were given AP intravenously (24 mg/kg) or orally (120 mg/kg), while mice received AP intravenously (20 mg/kg) or orally (100 mg/kg). After a 90-minute interval, the animals were sacrificed, and their liver, kidneys, small intestine, and colon were collected for analysis. In pharmacokinetic studies, rats were administered 24 mg/kg of AP intravenously or 120 mg/kg of AP by oral gavage. Blood samples were collected at predetermined time intervals (0, 5, 10, 20, 30, 40, 60, 90, 120, 180, 240, 360, and 480 min), as described, to detect the content of AP and APM by UPLC-MS/MS.

Series [2] can be described thus: Tissue distribution of AP and APM in mice. The class given is in vivo. As for the experimental part: as §1
After 360 min of AP treatment, all mice were euthanized, and tissue samples were collected for subsequent analysis. […]
as §2, §3

Series [3] can be described thus: AP incubation with duodenal perfusate. The class given is in vitro ADME, rat. Conditions: AP 40 μM. As for the experimental part: To investigate whether HSO3^- is the essential ligand for the C-sulfonate metabolism of AP, duodenal perfusate of SD rat was collected according to the method described in the literature^5. The duodenal perfusate was filtered by 0.22 μm Millex® needle filter, ultrafiltered by Amicon® Ultra filter or placed in an autoclave at 121°C for 2 hours, and then incubated with AP (40 μM) in vitro for 30, 60, 90 and 120 min. In another experiment, duodenal perfusate was autoclaved and then combined with HSO3^- (80 μM) and incubated with AP (40 μM) in vitro for 120 min. At the end of the incubation, 100 μL of ice-cold acetonitrile was quickly added to terminate the reaction. After centrifugation at 13000 rpm for 30 min, the supernatant was collected for UPLC-MS/MS analysis.

On the set-up of series [4]: method as in PMID 21721007. The note with it: AP incubated with rat duodenal perfusate; cited from earlier work.
For another series, the system named is HSO3^−. Nature of the series: HSO3^− concentration in the cecum. The class given is in vivo. Conditions: mice. As to the method: Mice were orally administered APS reductase inhibitor bromocriptine mesylate (20 mg/kg, p.o.) or Na2SO4 (200 mg/kg, p.o.) or saline solution 1 week before AP treatment (a single dose of AP at 100 mg/kg, p.o.). After 360 min of AP treatment, all mice were euthanized, and tissue samples were collected for subsequent analysis. In specific cases, mice were orally administered D. piger suspension (0.2 mL, 1 × 10^9 CFU/mL) or saline solution 2 weeks before AP treatment (a single dose of AP at 100 mg/kg, p.o.).
(§4) For the determination of APS reductase concentration, the supernatant from mouse cecum contents and the D. piger strain were assessed using microorganism APS reductase elisa assay kit (Shanghai Senxingyan Biotechnology Co., Ltd., China), following the instructions provided with the kit. For the determination of HSO3^− concentration, cecum contents from mice or rats were weighed and homogenized in five volumes of normal saline (based on tissue weight). The homogenate was then subjected to centrifugation at 13,000 rpm and 4°C for 15 min. The supernatant (or perfusate) was collected and mixed with 0.2% formaldehyde, 0.05% basic fuchsin, and 0.01% EDTA-Na2 in a ratio of 1:1:1:9 under acidic conditions. To establish a standard curve, different concentrations of NaHSO3 were used. Subsequently, the absorbance of the resulting solutions was measured at a wavelength of 560 nm after 40 min.

On the set-up of series [5]: method as in PMID 36809835, PMID 34142342. Conditions: dose-dependent increase; cited from earlier work.
A further series relates to intestinal flora of mice. Nature of the series: Co-culturing AP with cecum samples from mice. The note with it: bromocriptine mesylate 20 μg/mL. The format is in vitro ADME. As for the experimental part: (§5) The cecum contents from mice were collected and mixed with sterilized anaerobic medium in a ratio of 1.0 g to 10 mL, with gentle agitation. After filtered, the mixed medium containing the intestinal flora was placed in an anaerobic environment and preincubated at 37°C for 30 min before use. Mixed medium with or without APS reductase inhibitor bromocriptine mesylate (20 μg/mL) was incubated with AP (10 μg/mL), while autoclaved mixed medium without APS reductase inhibitor served as the control. Incubation was performed in a shaking incubator at 37°C for 6 h, with strict maintenance of anaerobic condition throughout the process.[44] Similarly, D. piger (0.2 mL, 1 × 10^8 CFU/mL) with or without inhibitor, was incubated with AP for 0, 3, 6, and 12 h, with autoclaved D. piger without inhibitor serving as the control. The reaction was terminated by adding cold methanol contained IS. And then samples were analyzed by UPLC-MS/MS to detect the concentrations of AP and APM. Concentrations of APS reductase and HSO3^− were also determined at the end of incubation.
as §4

The subject of another series is D. piger. The format is in vitro ADME, Desulfovibrio piger. The note with it: D. piger with inhibitor. As for the experimental part:
as §5, with “The reaction was terminated by adding cold methanol contained IS.” left out
For the determination of APS reductase concentration, the supernatant from mouse cecum contents and the D. piger strain were assessed using microorganism APS reductase elisa assay kit (Shanghai Senxingyan Biotechnology Co., Ltd., China), following the instructions provided with the kit. […] Subsequently, the absorbance of the resulting solutions was measured at a wavelength of 560 nm after 40 min.

Another series relates to APS reductase. Nature of the series: APS reductase level in feces by qPCR. The format is in vivo. Conditions: mice feces, bromocriptine mesylate 20 mg/kg p.o. As to the method: Total RNA from frozen livers of Vehicle, AP (200 mg/kg, i.p.), ANIT (50 mg/kg), and ANIT+AP (200 mg/kg, i.p.) groups was extracted using the Animal Total RNA Isolation Kit (FOREGENE, China). cDNA was synthesized using a Color Reverse Transcription Kit (EZBioscience, Roseville, CA, USA). qPCR was performed using SYBR green/Rox qPCR master mix (EZBioscience, Roseville, CA, USA), according to the manufacturer’s instruction. The expression of target genes was normalized to β-actin, and fold changes were calculated using 2^–ΔΔCT method. For bacterial identification, genomic DNA of fecal flora was isolated using the TIANamp Stool DNA Kit (TIANGEN, Beijing, China) and qPCR was performed. The relative abundance and expression of Desulfovibrio spp., D. piger and APS reductase were normalized to the amounts of total bacteria (16S). All primers were synthesized by Tsingke Biotechnology Co., Ltd. (Beijing, China) and were listed in Supplementary Table S1.
Background: Real-time PCR tracks product formation cycle by cycle.

A short description of series [6]: Safety of APS reductase inhibitor (liver, renal, blood lipid indicators). The class given is in vivo. The note with it: mice, 20 mg/kg orally for 14 days. As to the method:
Supplementary Figure 5. […] (A-D) Liver function indicators including ALT, AST, TBA, and TBIL. (E-G) Renal function indicators including CREA, UREA, and UA. (H-K) Blood lipid indicators including TG, TC, HDL-C, and LDL-C. Inhibitor refers to the treatment with the APS reductase inhibitor bromocriptine mesylate at a dosage of 20 mg/kg, administered orally for 14 days in mice. Data are presented as mean ± SEM (n = 8 per group).

The source of these data is article PMC11404609, “Gut microbiota-mediated C-sulfonate metabolism impairs the bioavailability and anti-cholestatic efficacy of andrographolide” (Gut Microbes, 2024).

Where a name gives a salt, the structure may show the parent alone. Read-outs that look alike come from different tables or passages of the source.

For `C=C1CCC2C(C)(CO)C(O)CCC2(C)C1CC(C1=CCOC1=O)S(=O)(=O)O` [APM, 14-deoxy-12(R)-sulfo andrographolide], the “levels of APM in plasma and tissues” value in series [1] (ABX-treated rats vs Control, AP 120 mg/kg oral) was “reduced levels”. Also, the “APM in all tissues” value is on record as “significant amount of APM was detected” in series [1] (rats, oral administration of AP (120 mg/kg)) and “significant amount of APM was detected” in series [2] (mice, oral administration of AP (100 mg/kg)). Further, the “APM in the intestine, liver, and kidneys” value in series [1] (rats, tail vein administration of AP (24 mg/kg)) is “undetectable”; in series [2] (mice, tail vein administration of AP (20 mg/kg)), “undetectable”. Further, the “concentration of APM in tissues” value is “decreased” in series [2] (ABX-treated mice vs Control, AP 100 mg/kg oral) and “increase” in series [2] (mice colonized with D. piger vs Control, AP 100 mg/kg p.o.). For the same compound, the “level of APM in the intestine and liver” value in [2] (mice of pharmacological experiment, AP 200 mg/kg, following ABX treatment vs Control) is “decreased significantly”. Further, in [2] (mice, AP 200 mg/kg p.o. with APS reductase inhibitor vs without), the “APM within the small intestine and liver” value is given as “decrease”. Also, the APM generation result in series [3] (autoclaved duodenal perfusate) is “not detectable”; in [3] (autoclaved perfusate with addition of HSO3^− (80 μM), 120 min) it was “production of APM”; in series [3] (duodenal perfusate after filtration and ultrafiltration) it was “continued APM generation”; in series [4], “large amounts”.

As to `O=S(=O)([O-])[O-].[Na+].[Na+]` [Na2SO4, sodium sulfate], the “HSO3^− content in the cecum” value in the series on HSO3^− (Na2SO4 200 mg/kg p.o.) is recorded as “significant increase”.

As for `CC[C@H]1[C@@H](O)[C@@H]2[C@H](CC[C@]3(C)[C@@H]([C@H](C)CCC(=O)O)CC[C@@H]23)[C@@]2(C)CC[C@@H](O)C[C@@H]12` [OCA, obeticholic acid], the “pruritus, share of treated patients” value in series [5] is listed as “roughly 40%”.

`CC(C)C[C@H]1C(=O)N2CCC[C@H]2[C@]2(O)O[C@](NC(=O)[C@@H]3C=C4c5cccc6[nH]c(Br)c(c56)C[C@H]4N(C)C3)(C(C)C)C(=O)N12` [bromocriptine mesylate]: the “effect on conversion of AP into APM by the intestinal flora” value in the series on intestinal flora of mice (AP 10 μg/mL, 6 h) is reported as “effectively impeded”. Also, in the series on intestinal flora of mice (co-culture of AP with cecum samples), the “concentrations of APS reductase and HSO3^−” value is reported as “significant decrease”. In addition, in the series on D. piger, the “effect on D. piger metabolism of AP into APM (APS reductase and HSO3^− production)” value was “significantly inhibited”. Besides, the “HSO3^− content in the cecum” value in the series with HSO3^− (bromocriptine mesylate 20 mg/kg p.o.) is given as “decrease”. Further, in the series on APS reductase, the APS reductase level entry is on record as “decrease”. In addition, the “damage to organism (liver function, renal function, blood lipid indicators)” value in series [6] is given as “did not induce damage to organism”.
